Six sequences from publication PMC4956214, “Identification of Host Insulin Binding Sites on Schistosoma japonicum Insulin Receptors” (PLoS ONE, 2016) can be followed below.

The target in this experiment is T1, human insulin (Homo sapiens, UniProt P01308).
T1 construct: human insulin was biotinylated using a NHS-PEO4-biotin kit; biotin (chemical label, NHS-PEO4-biotin)
T1 sequence (P01308 25-54 limits assumed): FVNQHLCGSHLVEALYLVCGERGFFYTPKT
T1 sequence (P01308 90-110 limits assumed): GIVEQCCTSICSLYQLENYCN
Put plainly: Octet RED insulin binding assay (biotinylated human insulin on streptavidin biosensors). Conditions: Octet RED binding assays. (Biolayer interferometry detects binding as a change in optical thickness at a sensor tip.)
As to “AYLIWIRILEDNPSEY [Analogue 16, peptide analogue from SjIR-2 FnIII-1]”, the “Specific binding to human insulin” value was “no specific binding”.
For “GSLIIENGNCSGDLSTLLPNLTVIRNQVI [Analogue 2, peptide analogue from SjIR-1 L1 domain]” the value was “no specific binding”; for “HEPKCHKVIEPITN [Analogue 8, peptide analogue from SjIR-1 FnIII-1]”, “no specific binding”; for “IGIDESESIIETIC [Analogue 7, peptide analogue from SjIR-1 FnIII-1]”, “no specific binding”.
For “ILPVIVDEVVSLKSDTVG [Analogue 18, peptide analogue from SjIR-2 FnIII-2]” the value was “no specific binding”; for “IPRDASLPFLKEVTGSLLVYDTEGPEDL [Analogue 14, peptide analogue from SjIR-2 L1]”, “no specific binding”.
